In ChEMBL document CHEMBL1153762, “Novel, broad-spectrum anticonvulsants containing a sulfamide group: advancement of N-((benzo[b]thien-3-yl)methyl)sulfamide (JNJ-26990990) into human clinical studies” (J Med Chem, 2009):
Active and inactive are the calls of the source.

Tests used:
[1] = Plasma concentration in rat assessed as unchanged compound remaining at 59.2 kBq/mg, po after 4 hrs by MS/MS analysis; format: ADME, organism-based; conditions: read-out: Activity
Plasma [2] = experiment: Metabolic stability in rat plasma assessed as formation of N-[(1-oxido-1-benzothien-3-yl)methyl]sulfamide at 59.2 kBq/mg, po after 4 hrs by MS/MS analysis; format: ADME, organism-based; conditions: in vivo
Plasma [3] = experiment: Metabolic stability in rat plasma assessed as formation of benzothiophene-3-carboxylic acid at 59.2 kBq/mg, po after 4 hrs by MS/MS analysis; format: ADME, organism-based; conditions: in vivo
[4] = Metabolic stability in rat urine assessed as formation of N-[(1-oxido-1-benzothien-3-yl)methyl]sulfamide at 59.2 kBq/mg, po after 24 hrs by MS/MS analysis; format: ADME, organism-based; conditions: in vivo
[5] = Metabolic stability in rat urine assessed as formation of benzothiophene-3-carboxylic acid at 59.2 kBq/mg, po after 8 to 24 hrs by MS/MS analysis; format: ADME, organism-based; conditions: in vivo
[6] = Metabolic stability in rat urine assessed as formation of [(Benzo[b]thiophene-3-carbonyl)-amino]-acetic acid at 59.2 kBq/mg, po after 8 to 24 hrs by MS/MS analysis; format: ADME, organism-based; conditions: in vivo
Plasma [7] = experiment: Metabolic stability in rat plasma assessed as formation of biotransformation product N-[(1-oxido-1-benzothien-3-yl)methyl]sulfamide at 500 mg, po up to 72 hrs by MS/MS analysis; format: ADME, organism-based; conditions: in vivo
[8] = Metabolic stability in rat urine assessed as formation of biotransformation product N-[(1-oxido-1-benzothien-3-yl)methyl]sulfamide at 500 mg, po up to 24 hrs by MS/MS analysis; format: ADME, organism-based; conditions: in vivo
Mus musculus [9] = experiment: Anticonvulsant activity against maximal electroshock-induced seizure in po dosed CF1 mouse after 1 hr; format: functional; conditions: Mus musculus, CF1, po, 1 h; read-out: ED50
Mus musculus [10] = experiment: Anticonvulsant activity against maximal electroshock-induced seizure in po dosed CF1 mouse after 3 hrs; format: functional
Carbonic anhydrase 2 = Carbonic anhydrase 2 (Homo sapiens, UniProt P00918); experiment: Inhibition of human carbonic anhydrase 2 by fluorimetric assay
Carbonic anhydrase 1 = Carbonic anhydrase 1 (Homo sapiens, UniProt P00915); experiment: Inhibition of carbonic anhydrase 1
Carbonic anhydrase 1, sequence (P00915 whole entry): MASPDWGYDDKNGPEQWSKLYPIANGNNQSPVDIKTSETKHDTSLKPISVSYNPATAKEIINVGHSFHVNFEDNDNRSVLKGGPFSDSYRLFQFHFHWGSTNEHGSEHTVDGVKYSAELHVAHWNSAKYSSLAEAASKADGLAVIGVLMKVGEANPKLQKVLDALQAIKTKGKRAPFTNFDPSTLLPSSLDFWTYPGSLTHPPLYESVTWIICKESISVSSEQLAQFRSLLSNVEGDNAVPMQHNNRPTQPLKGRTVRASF

Mus musculus [11] = experiment: Anticonvulsant activity against bicuculline-induced seizure in ip dosed CF1 mouse after 0.25 hrs; format: functional; conditions: Mus musculus, CF1, ip, 0.25 h; read-out: ED50
Mus musculus [12] = experiment: Anticonvulsant activity against picrotoxin-induced seizure in ip dosed CF1 mouse after 0.25 hrs; format: functional
Mus musculus [13] = experiment: Anticonvulsant activity against pentylenetetrazole-induced seizure in ip dosed CF1 mouse after 0.25 hrs; format: functional; conditions: Mus musculus, CF1, ip, 0.25 h; read-out: ED50
Mus musculus [14] = experiment: Anticonvulsant activity against pentylenetetrazole-induced seizure in CF1 mouse assessed as increase in threshold of seizure twitch at 107 mg/kg, ip administered 15 mins before pentylenetetrazole infusion; format: functional; conditions: route intraperitoneal
Mus musculus [15] = experiment: Anticonvulsant activity against pentylenetetrazole-induced seizure in CF1 mouse assessed as increase in seizure threshold for clonus at 107 mg/kg, ip administered 15 mins before pentylenetetrazole infusion; format: functional; conditions: route intraperitoneal
Mus musculus [16] = experiment: Anticonvulsant activity against pentylenetetrazole-induced seizure in CF1 mouse assessed as increase in threshold of seizure twitch at 182 mg/kg, ip administered 15 mins before pentylenetetrazole infusion; format: functional; conditions: route intraperitoneal
Mus musculus [17] = experiment: Anticonvulsant activity against pentylenetetrazole-induced seizure in CF1 mouse assessed as increase in seizure threshold for clonus at 182 mg/kg, ip administered 15 mins before pentylenetetrazole infusion; format: functional; conditions: route intraperitoneal
[18] = Neurotoxicity in ip dosed mouse assessed as motor impairment by rotarod test; format: toxicity, organism-based; conditions: in vivo
[19] = Neurotoxicity in po dosed rat assessed as motor impairment by rotarod test; format: toxicity, organism-based; conditions: in vivo
Rattus norvegicus [20] = experiment: Anticonvulsant activity against maximal electroshock-induced seizure in po dosed Sprague-Dawley rat after 2 hrs; format: functional; conditions: Rattus norvegicus, Sprague-Dawley, po, 2 h; read-out: ED50
Mus musculus [21] = experiment: Anticonvulsant activity against audiogenic seizures in ip dosed AGS mouse assessed as inhibition of hindlimb tonic extension administered 1 hr prior to 11 kHz sound induction; format: functional; conditions: Mus musculus, AGS, Hindlimb, ip; read-out: ED50
Mus musculus [22] = experiment: Ratio of compound ED50 to topiramate ED50 for anticonvulsant activity against audiogenic seizures in ip dosed AGS mouse; format: functional
Rattus norvegicus [23] = experiment: Anticonvulsant activity against electric stimulation-induced focal seizure in ip dosed Sprague-Dawley rat kindling model assessed as reduction of after-discharge duration administered 15 mins after last electric stimulation measured after 15 mins to 1 hr; format: functional; parameters: scale not given: the % may be the effect or the level left
Rattus norvegicus [24] = experiment: Protective index, ratio of TD50 for neurotoxicity in po dosed rat to ED50 for anticonvulsant activity against maximal electroshock-induced seizure in po dosed rat; format: functional
[25] = target: Sodium channel protein type 2 subunit alpha (Rattus norvegicus) (UniProt P04775); experiment: Inhibition of rat Nav1.2 channel expressed in chinese hamster CHL1610 cells at preconditioning pulse of -107 mV after 2 to 3 mins by whole-cell patch-clamp technique; format: cell-based
Sodium channel protein type 2 subunit alpha (Rattus norvegicus), sequence (P04775 whole entry, looked up): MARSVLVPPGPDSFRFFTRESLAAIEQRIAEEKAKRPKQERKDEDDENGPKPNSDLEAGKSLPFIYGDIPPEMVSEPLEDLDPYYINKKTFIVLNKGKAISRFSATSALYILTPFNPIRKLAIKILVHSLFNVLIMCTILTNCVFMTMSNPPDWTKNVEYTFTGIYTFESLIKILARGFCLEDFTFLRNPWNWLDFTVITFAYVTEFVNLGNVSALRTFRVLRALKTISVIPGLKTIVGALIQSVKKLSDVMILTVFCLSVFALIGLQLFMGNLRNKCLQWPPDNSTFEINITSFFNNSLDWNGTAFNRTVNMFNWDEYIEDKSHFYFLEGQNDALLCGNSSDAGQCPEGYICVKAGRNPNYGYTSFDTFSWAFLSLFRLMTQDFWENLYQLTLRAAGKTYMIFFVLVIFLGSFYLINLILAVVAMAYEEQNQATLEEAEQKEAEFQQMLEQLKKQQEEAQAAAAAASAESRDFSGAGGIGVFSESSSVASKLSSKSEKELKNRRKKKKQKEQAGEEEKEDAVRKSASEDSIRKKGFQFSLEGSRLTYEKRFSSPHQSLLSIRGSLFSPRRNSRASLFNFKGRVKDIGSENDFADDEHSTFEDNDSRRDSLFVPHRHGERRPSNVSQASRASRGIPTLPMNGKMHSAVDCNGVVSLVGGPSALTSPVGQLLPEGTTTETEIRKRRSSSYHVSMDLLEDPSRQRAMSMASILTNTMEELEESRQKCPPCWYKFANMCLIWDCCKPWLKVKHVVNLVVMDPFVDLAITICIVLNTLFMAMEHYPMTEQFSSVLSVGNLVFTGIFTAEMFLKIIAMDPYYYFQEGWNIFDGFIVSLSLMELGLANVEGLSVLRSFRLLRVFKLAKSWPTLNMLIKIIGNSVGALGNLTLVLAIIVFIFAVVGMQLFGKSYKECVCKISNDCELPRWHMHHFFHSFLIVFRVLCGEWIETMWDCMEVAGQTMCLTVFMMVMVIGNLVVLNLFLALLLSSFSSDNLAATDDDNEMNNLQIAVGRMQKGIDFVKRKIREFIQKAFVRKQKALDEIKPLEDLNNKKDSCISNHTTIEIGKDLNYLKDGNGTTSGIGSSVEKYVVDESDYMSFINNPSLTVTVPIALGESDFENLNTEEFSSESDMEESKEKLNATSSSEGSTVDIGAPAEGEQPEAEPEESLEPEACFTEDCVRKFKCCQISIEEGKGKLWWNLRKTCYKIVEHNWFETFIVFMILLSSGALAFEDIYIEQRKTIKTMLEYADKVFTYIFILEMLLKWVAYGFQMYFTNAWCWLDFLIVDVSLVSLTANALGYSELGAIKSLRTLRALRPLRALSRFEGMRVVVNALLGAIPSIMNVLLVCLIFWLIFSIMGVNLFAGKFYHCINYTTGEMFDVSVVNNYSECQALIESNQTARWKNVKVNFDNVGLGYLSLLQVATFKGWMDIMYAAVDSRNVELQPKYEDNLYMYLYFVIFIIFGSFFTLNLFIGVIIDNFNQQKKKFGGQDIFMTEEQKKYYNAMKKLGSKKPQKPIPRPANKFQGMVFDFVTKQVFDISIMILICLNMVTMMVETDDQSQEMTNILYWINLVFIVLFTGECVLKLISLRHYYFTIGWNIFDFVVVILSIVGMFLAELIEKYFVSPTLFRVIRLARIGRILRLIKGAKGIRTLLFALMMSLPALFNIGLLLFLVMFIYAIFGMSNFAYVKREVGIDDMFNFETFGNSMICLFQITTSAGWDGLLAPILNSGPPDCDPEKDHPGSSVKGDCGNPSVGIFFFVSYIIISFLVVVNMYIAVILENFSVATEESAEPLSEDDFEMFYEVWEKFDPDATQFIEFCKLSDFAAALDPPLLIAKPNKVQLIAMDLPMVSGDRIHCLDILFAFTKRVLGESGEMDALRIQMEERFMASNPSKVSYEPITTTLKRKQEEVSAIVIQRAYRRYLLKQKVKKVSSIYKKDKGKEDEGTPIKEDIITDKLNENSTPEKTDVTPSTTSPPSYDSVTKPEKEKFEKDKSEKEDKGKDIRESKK

[26] = target: Sodium channel protein type 2 subunit alpha (Rattus norvegicus) (UniProt P04775); experiment: (§1) Inhibition of rat Nav1.2 channel expressed in chinese hamster CHL1610 cells at preconditioning pulse of -67 mV after 2 to 3 mins by whole-cell patch-clamp technique; format: cell-based
[27] = target: Sodium channel protein type 2 subunit alpha (Rattus norvegicus, UniProt P04775); experiment: as §1; format: cell-based
Sodium channel protein type 2 subunit alpha, sequence (P04775 whole entry): as the sequence (P04775 whole entry, looked up) above

[28] = target: Voltage-dependent N-type calcium channel subunit alpha-1B (Rattus norvegicus) (UniProt Q02294); experiment: Inhibition of rat Cav2.2 channel expressed in HEK cells assessed as depolarization-induced calcium influx by fluorescence-based assay; format: cell-based; conditions: HEK293
Voltage-dependent N-type calcium channel subunit alpha-1B (Rattus norvegicus), sequence (Q02294 whole entry, looked up): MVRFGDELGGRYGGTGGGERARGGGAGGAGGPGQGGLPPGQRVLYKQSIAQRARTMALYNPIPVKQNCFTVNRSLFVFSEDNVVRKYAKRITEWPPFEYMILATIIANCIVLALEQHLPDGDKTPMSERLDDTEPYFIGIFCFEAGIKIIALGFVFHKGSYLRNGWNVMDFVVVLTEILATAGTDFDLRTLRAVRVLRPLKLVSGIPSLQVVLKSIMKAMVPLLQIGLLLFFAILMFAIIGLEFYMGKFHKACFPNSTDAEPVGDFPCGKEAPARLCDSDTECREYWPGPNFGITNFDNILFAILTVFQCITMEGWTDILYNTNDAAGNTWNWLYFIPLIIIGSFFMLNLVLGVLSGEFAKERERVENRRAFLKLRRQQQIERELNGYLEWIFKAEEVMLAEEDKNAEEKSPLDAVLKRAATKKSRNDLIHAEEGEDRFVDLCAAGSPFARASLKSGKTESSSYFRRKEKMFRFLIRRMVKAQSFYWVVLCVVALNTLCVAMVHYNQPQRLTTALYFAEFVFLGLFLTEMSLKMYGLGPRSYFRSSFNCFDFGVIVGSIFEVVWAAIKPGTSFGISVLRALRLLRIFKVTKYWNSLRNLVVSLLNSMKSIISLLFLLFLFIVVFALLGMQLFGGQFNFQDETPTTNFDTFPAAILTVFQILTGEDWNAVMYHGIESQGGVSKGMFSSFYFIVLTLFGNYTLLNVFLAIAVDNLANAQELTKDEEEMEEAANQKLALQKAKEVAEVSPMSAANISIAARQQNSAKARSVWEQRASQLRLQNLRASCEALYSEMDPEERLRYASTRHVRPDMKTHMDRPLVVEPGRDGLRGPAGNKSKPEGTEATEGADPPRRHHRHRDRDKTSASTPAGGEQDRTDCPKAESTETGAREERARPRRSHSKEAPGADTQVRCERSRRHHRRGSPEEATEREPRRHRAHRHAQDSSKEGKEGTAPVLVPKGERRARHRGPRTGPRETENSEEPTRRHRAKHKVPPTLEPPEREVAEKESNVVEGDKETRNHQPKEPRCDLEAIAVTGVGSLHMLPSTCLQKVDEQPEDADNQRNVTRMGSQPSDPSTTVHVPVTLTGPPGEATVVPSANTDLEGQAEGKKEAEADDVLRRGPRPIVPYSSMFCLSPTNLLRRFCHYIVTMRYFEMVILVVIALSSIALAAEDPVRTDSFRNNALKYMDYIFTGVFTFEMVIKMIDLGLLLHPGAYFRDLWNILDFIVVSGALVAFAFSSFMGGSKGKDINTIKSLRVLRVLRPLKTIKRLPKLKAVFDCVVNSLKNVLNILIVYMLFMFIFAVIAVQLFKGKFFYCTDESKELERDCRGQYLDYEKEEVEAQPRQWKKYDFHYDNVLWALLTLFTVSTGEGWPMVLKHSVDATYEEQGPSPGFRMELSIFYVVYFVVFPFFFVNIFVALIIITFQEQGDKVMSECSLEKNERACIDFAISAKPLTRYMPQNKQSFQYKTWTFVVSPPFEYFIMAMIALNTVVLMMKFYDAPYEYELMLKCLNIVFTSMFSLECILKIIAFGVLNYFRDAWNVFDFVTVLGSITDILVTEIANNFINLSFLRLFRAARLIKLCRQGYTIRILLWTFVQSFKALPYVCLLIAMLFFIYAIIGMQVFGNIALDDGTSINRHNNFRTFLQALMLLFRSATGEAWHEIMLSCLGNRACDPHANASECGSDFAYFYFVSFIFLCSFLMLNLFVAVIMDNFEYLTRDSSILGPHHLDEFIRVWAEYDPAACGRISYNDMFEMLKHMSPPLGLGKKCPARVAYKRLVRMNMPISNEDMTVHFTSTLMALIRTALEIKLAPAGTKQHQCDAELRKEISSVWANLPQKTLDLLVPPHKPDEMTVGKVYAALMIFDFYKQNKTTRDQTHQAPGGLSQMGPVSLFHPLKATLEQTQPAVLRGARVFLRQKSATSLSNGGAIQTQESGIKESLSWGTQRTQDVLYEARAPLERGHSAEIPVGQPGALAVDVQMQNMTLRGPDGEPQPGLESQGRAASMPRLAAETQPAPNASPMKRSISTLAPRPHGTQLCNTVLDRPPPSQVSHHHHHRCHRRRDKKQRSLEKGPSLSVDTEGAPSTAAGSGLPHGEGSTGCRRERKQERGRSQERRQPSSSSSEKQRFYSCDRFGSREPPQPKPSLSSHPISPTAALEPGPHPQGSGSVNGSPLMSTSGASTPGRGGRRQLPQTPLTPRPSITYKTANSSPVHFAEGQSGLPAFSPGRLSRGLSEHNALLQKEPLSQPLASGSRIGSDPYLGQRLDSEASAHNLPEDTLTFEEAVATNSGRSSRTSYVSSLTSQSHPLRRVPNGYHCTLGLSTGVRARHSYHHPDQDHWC

[29] = target: Voltage-dependent N-type calcium channel subunit alpha-1B (Rattus norvegicus) (UniProt Q02294); experiment: (§2) Inhibition of rat Cav2.2 channel expressed in 0.07 Hz frequency-stimulated HEK cells by whole-cell patch-clamp technique; format: cell-based; conditions: HEK293
[30] = target: Voltage-dependent N-type calcium channel subunit alpha-1B (Rattus norvegicus, UniProt Q02294); experiment: as §2; format: cell-based, HEK293
Voltage-dependent N-type calcium channel subunit alpha-1B, sequence (Q02294 whole entry): as the sequence (Q02294 whole entry, looked up) above

[31] = target: Voltage-dependent N-type calcium channel subunit alpha-1B (Rattus norvegicus) (UniProt Q02294); experiment: Inhibition of rat Cav2.2 channel expressed in 0.07 Hz frequency-stimulated HEK cells at 30 uM by whole-cell patch-clamp technique; format: cell-based; conditions: HEK293
[32] = target: Voltage-dependent N-type calcium channel subunit alpha-1B (Rattus norvegicus) (UniProt Q02294); experiment: Inhibition of rat Cav2.2 channel expressed in 5 Hz frequency-stimulated HEK cells at 30 uM by whole-cell patch-clamp technique; format: cell-based; conditions: HEK293
[33] = target: Potassium voltage-gated channel subfamily KQT member 2 (Rattus norvegicus) (UniProt O88943); experiment: Activation of rat Kv7.2 assessed as increase in channel current at membrane potential of -70 to -3- mV at 300 uM by whole-cell patch-clamp technique; format: cell membranes
Mus musculus [34] = species on record: Mus musculus; experiment: Inhibition of NMDA receptor in mouse cortical neuron assessed as inhibition of glycine-induced receptor current at 100 uM by whole-cell patch-clamp technique
Mus musculus [35] = species on record: Mus musculus; experiment: Inhibition of kainate receptor in mouse cortical neuron assessed as inhibition of kainic acid-induced receptor current at 100 uM by whole-cell patch-clamp technique
Mus musculus [36] = species on record: Mus musculus; experiment: Activation of GABA receptor in mouse cortical neuron assessed as increase in GABA-induced receptor current at 100 uM by whole-cell patch-clamp technique
[37] = Metabolic stability in mouse liver microsomes assessed as compound remaining at 2 uM after 10 mins; format: ADME, Microsome; conditions: read-out: Stability
[38] = Metabolic stability in rat liver microsomes assessed as compound remaining at 2 uM after 10 mins; format: ADME, Microsome; conditions: read-out: Stability
[39] = Metabolic stability in human liver microsomes assessed as compound remaining at 2 uM after 10 mins; format: ADME, Microsome; conditions: read-out: Stability
[40] = Half life in human liver microsomes at 2 uM; format: ADME, Microsome
[41] = Volume of distribution at steady state in mouse at 30 mg/kg, po and 3 mg/kg, iv administered as bolus dose; format: ADME, organism-based; conditions: in vivo, read-out: Vdss
[42] = Bioavailability in mouse at 30 mg/kg, po and 3 mg/kg, iv administered as bolus dose; format: ADME, organism-based; conditions: in vivo
[43] = Cmax in mouse at 30 mg/kg, po administered as bolus dose; format: ADME, organism-based; parameters: dose 30 mg/kg, route oral; conditions: in vivo
[44] = Half life in mouse at 30 mg/kg, po administered as bolus dose; format: ADME, organism-based; parameters: dose 30 mg/kg, route oral; conditions: in vivo
[45] = Half life in mouse at 3 mg/kg, iv administered as bolus dose; format: ADME, organism-based; parameters: dose 3 mg/kg, route intravenous; conditions: in vivo
[46] = Clearance in mouse at 30 mg/kg, po and 3 mg/kg, iv administered as bolus dose; format: ADME, organism-based; conditions: in vivo
[47] = Bioavailability in rat at 2 mg/kg, po; format: ADME, organism-based; conditions: in vivo
[48] = Bioavailability in rat at 10 mg/kg, po; format: ADME, organism-based; conditions: in vivo
Mus musculus [49] = experiment: Total body water content in mouse at 30 mg/kg, po and 3 mg/kg, iv administered as bolus dose; format: ADME, organism-based; conditions: in vivo
Rattus norvegicus [50] = experiment: Total body water content in rat at 2 mg/kg, iv; format: ADME, organism-based; parameters: dose 2 mg/kg, route intravenous; conditions: in vivo
[51] = Ratio of drug level in brain to plasma in rat at 30 mg/kg, po up to 6 hrs; format: ADME, organism-based; parameters: dose 30 mg/kg, route oral; conditions: brain and plasma, read-out: BPR
[52] = Plasma concentration in rat at 30 mg/kg, po after 2 hrs by LC/MS analysis; format: ADME, organism-based; parameters: dose 30 mg/kg, route oral
[53] = Drug level in rat brain at 30 mg/kg, po after 2 hrs by LC/MS analysis; format: ADME, organism-based; parameters: dose 30 mg/kg, route oral; conditions: read-out: Drug uptake

Compound: NS(=O)(=O)NCc1csc2ccccc12
- remaining at 4 h [1]: 60%
- Activity (Plasma [2]): 31%
- Activity (Plasma [3]): 9%
- Activity [4]: 48%
- Activity [5]: 0.5%
- Activity [6]: 4.2%
- Activity (Plasma [7]): 78%
- Activity [8]: 46%
- ED50 (Mus musculus [9]): 107 mg/kg
- ED50 (Mus musculus [10]): 119 mg/kg
- IC50 (Carbonic anhydrase 2): 66 µM
- IC50 (Carbonic anhydrase 1): 25 µM
- ED50 (Mus musculus [11]): 156 mg/kg
- ED50 (Mus musculus [12]): 106 mg/kg
- ED50 (Mus musculus [13]): 161 mg/kg
- Activity (Mus musculus [14]): 129%
- Activity (Mus musculus [15]): 147%
- Activity (Mus musculus [16]): 141%
- Activity (Mus musculus [17]): 159%
- TD50 [18]: 182 mg/kg
- TD50 [19]: > 500 mg/kg
- ED50 (Rattus norvegicus [20]): 34 mg/kg
- ED50 (Mus musculus [21]): 21 mg/kg
- Ratio ED50 (Mus musculus [22]): 5
- Activity (Rattus norvegicus [23]): 64%
- Ratio TD50/ED50 (Rattus norvegicus [24]): >15
- inhibition [25]: inactive
- inhibition [26]: Dose-dependent effect
- IC50 [27]: 48 µM
- inhibition [28]: Dose-dependent effect
- inhibition [29]: Dose-dependent effect
- IC50 [30]: 133 µM
- inhibition [31]: 20%
- inhibition [32]: 30%
- Activity [33]: inactive
- inhibition (Mus musculus [34]): 23%
- inhibition (Mus musculus [35]): 8%
- inhibition (Mus musculus [36]): 2%
- remaining at 10 min, 2 µM [37]: 83%
- remaining at 10 min, 2 µM [38]: 76%
- remaining at 10 min, 2 µM [39]: 90%
- half-life at 2 µM [40]: > 1.67 h
- Vd [41]: 2.9 L/kg
- bioavailability [42]: 59%
- Cmax [43]: 3900 ng/mL
- half-life [44]: 1.5 h
- half-life [45]: 1.5 h
- clearance [46]: 30 mL/min/kg
- bioavailability [47]: 89%
- bioavailability [48]: 96%
- Activity (Mus musculus [49]): 725 mL/kg
- Activity (Rattus norvegicus [50]): 670 mL/kg
- Kp at 6 h [51]: 2.5
- concentration at 2 h [52]: 19 µM
- concentration at 2 h [53]: 47 µM
